Measured values as given in PubChem BioAssay AID318 (DTP/NCI, 2004).
Several values for one entry are separate records, joined by “and”; a condition that tells them apart may be missing. Equal values may be shown once. Toxic doses and inconclusive results are not listed.

Test system: BDF1 mice, P815 leukemia ip, survival T/C
Assay: NCI In Vivo Anticancer Drug Screen. Data for tumor model P815 Mast Cell Leukemia (Ascitic) (intraperitoneal) in B6D2F1 (BDF1) mice
Conditions: higher = longer survival
Protocol: The antitumor activity of compounds was measured in mice bearing transplantable tumors. Survival or tumor size were measured and the results are expressed as the measurement made in the treated group (T) divided by the measurement made in the vehicle treated control group (C). The tumor model used in this assay is P815 Mast Cell Leukemia (Ascitic) (intraperitoneal) in B6D2F1 (BDF1) mice

[1] = endpoint: survival time, mean or median, dose: 20.0 mg/kg/injection, schedule: Q01DX010 (ip), vehicle: saline
[2] = endpoint: survival time, mean or median, dose: 5.0 mg/kg/injection, schedule: Q01DX010 (ip), vehicle: saline
[3] = endpoint: survival time, mean or median, dose: 10.0 mg/kg/injection, schedule: Q01DX010 (ip), vehicle: saline
[4] = endpoint: survival time, mean or median, dose: 40.0 mg/kg/injection, schedule: Q01DX010 (ip), vehicle: saline

Which T/C (endpoint: survival time, mean or median, dose: 0.12 mg/kg/injection, schedule: Q01DX015 (ip), vehicle: saline) does the source give for CC[n+]1c(-c2ccccc2)c2cc(N)ccc2c2ccc(N)cc21 here?
Its T/C is 105 % of control.

What about the T/C (endpoint: survival time, mean or median, dose: 0.25 mg/kg/injection, schedule: Q01DX015 (ip), vehicle: saline) of the same molecule?
The T/C was 109 % of control.

And the T/C (endpoint: survival time, mean or median, dose: 0.5 mg/kg/injection, schedule: Q01DX015 (ip), vehicle: saline)?
The T/C was 120 % of control.

What about the T/C (endpoint: survival time, mean or median, dose: 1.0 mg/kg/injection, schedule: Q01DX015 (ip), vehicle: saline) of the same molecule?
The T/C was 117 % of control.

What about the T/C (endpoint: survival time, mean or median, dose: 2.0 mg/kg/injection, schedule: Q01DX015 (ip), vehicle: saline) of the same molecule?
The T/C was 208 % of control.

What about the T/C (endpoint: survival time, mean or median, dose: 5.0 mg/kg/injection, schedule: Q01DX015 (ip), vehicle: saline) of the same molecule?
Its T/C is 163 % of control.

And the T/C (endpoint: survival time, mean or median, dose: 10.0 mg/kg/injection, schedule: Q01DX015 (ip), vehicle: saline)?
Its T/C is 87 % of control.

For CN=C(NC)c1ccc(NC(=O)Nc2ccc(NC(=O)Nc3ccc(C(=NC)NC)cc3)cc2)cc1, which T/C (endpoint: survival time, mean or median, dose: 13.3 mg/kg/injection, schedule: Q01DX010 (ip), vehicle: saline) is on record?
Its T/C is 108 % of control.

What about the T/C [1] of the same molecule?
The T/C was 112 % of control.

What does the source list for N#[N+]c1cnc([O-])[nH]c1=O?
T/C (endpoint: survival time, mean or median, dose: 1.25 mg/kg/injection, schedule: Q01DX010 (ip), vehicle: saline): 150 % of control; T/C (endpoint: survival time, mean or median, dose: 2.5 mg/kg/injection, schedule: Q01DX010 (ip), vehicle: saline): 205 % of control; T/C [2]: 215 % of control and 150 % of control; T/C [3]: 205 % of control and 161 % of control

How did the T/C (endpoint: survival time, mean or median, dose: 3.0 mg/kg/injection, schedule: Q01DX010 (ip), vehicle: saline) turn out when N=C(N)c1ccc(Nc2ccc(C(=N)N)cc2)cc1 was run?
The T/C was 94 % of control and 100 % of control.

And the T/C (endpoint: survival time, mean or median, dose: 6.0 mg/kg/injection, schedule: Q01DX010 (ip), vehicle: saline)?
Its T/C is 100 % of control.

What about the T/C (endpoint: survival time, mean or median, dose: 12.0 mg/kg/injection, schedule: Q01DX010 (ip), vehicle: saline) of the same molecule?
The T/C was 88 % of control and 100 % of control.

What about the T/C (endpoint: survival time, mean or median, dose: 24.0 mg/kg/injection, schedule: Q01DX010 (ip), vehicle: saline) of the same molecule?
Its T/C is 87 % of control.

For CN(C)[C@@H]1C(=O)C(C(N)=O)=C(O)[C@@]2(O)C(=O)C3=C(O)c4c(O)cccc4C[C@H]3C[C@@H]12, which T/C (endpoint: survival time, mean or median, dose: 30.0 mg/kg/injection, schedule: Q01DX015 (ip), vehicle: alkali diluted with saline) is on record?
Its T/C is 117 % of control.

With N=C(N)SCc1c2ccccc2c(CSC(=N)N)c2ccccc12 as the molecule, how does the T/C [2] read?
The T/C was 162 % of control.

And the T/C [3]?
The T/C was 175 % of control and 200 % of control.

And the T/C [1]?
The T/C was 150 % of control.

And the T/C [4]?
Its T/C is 150 % of control.

How did the T/C (endpoint: survival time, mean or median, dose: 16.0 mg/kg/injection, schedule: Q01DX010 (ip), vehicle: saline) turn out when CCCCn1cnc2c(=S)nc[nH]c21 was run?
Its T/C is 105 % of control.

What about the T/C (endpoint: survival time, mean or median, dose: 32.0 mg/kg/injection, schedule: Q01DX010 (ip), vehicle: saline) of the same molecule?
Its T/C is 100 % of control.

What about the T/C (endpoint: survival time, mean or median, dose: 64.0 mg/kg/injection, schedule: Q01DX010 (ip), vehicle: saline) of the same molecule?
Its T/C is 111 % of control.

And the T/C (endpoint: survival time, mean or median, dose: 128.0 mg/kg/injection, schedule: Q01DX010 (ip), vehicle: saline)?
The T/C was 105 % of control.

Which results are given for CC(=O)OCC1OC(n2cnc3c(=S)nc[nH]c32)C(OC(C)=O)C1OC(C)=O (stereo not given)?
T/C (endpoint: survival time, mean or median, dose: 50.0 mg/kg/injection, schedule: Q01DX015 (ip), vehicle: carboxymethylcellulose (CMC)): 162 % of control; T/C (endpoint: survival time, mean or median, dose: 100.0 mg/kg/injection, schedule: Q01DX015 (ip), vehicle: carboxymethylcellulose (CMC)): 100 % of control

How did the T/C (endpoint: median survival time, dose: 62.2 mg/kg/injection, schedule: Q04DX003 (ip), vehicle: saline) turn out when O=C(O)CC(NC(=O)CP(=O)(O)O)C(=O)O (stereo not given) was run?
Its T/C is 99 % of control.

What about the T/C (endpoint: median survival time, dose: 104.0 mg/kg/injection, schedule: Q04DX003 (ip), vehicle: saline) of the same molecule?
Its T/C is 99 % of control.

What about the T/C (endpoint: median survival time, dose: 173.0 mg/kg/injection, schedule: Q04DX003 (ip), vehicle: saline) of the same molecule?
The T/C was 97 % of control.

What about the T/C (endpoint: median survival time, dose: 288.0 mg/kg/injection, schedule: Q04DX003 (ip), vehicle: saline) of the same molecule?
The T/C was 107 % of control.

What about the T/C (endpoint: median survival time, dose: 480.0 mg/kg/injection, schedule: Q04DX003 (ip), vehicle: saline) of the same molecule?
Its T/C is 92 % of control.

With N=[N+]=CC(=O)OCC(N)C(=O)O (stereo not given) as the molecule, how does the T/C (endpoint: survival time, mean or median, dose: 3.13 mg/kg/injection, schedule: Q01DX010 (ip), vehicle: saline) read?
The T/C was 110 % of control and 111 % of control.

What about the T/C (endpoint: survival time, mean or median, dose: 6.25 mg/kg/injection, schedule: Q01DX010 (ip), vehicle: saline) of the same molecule?
Its T/C is 118 % of control and 119 % of control.

And the T/C (endpoint: survival time, mean or median, dose: 12.5 mg/kg/injection, schedule: Q01DX010 (ip), vehicle: saline)?
The T/C was 100 % of control and 123 % of control.

Which T/C [3] does the source give for Cn1c(N)nc2nc[nH]c2c1=S here?
The T/C was 106 % of control.

And the T/C [1]?
Its T/C is 100 % of control and 111 % of control.

What about the T/C [4] of the same molecule?
Its T/C is 100 % of control.

What about the T/C (endpoint: survival time, mean or median, dose: 160.0 mg/kg/injection, schedule: Q01DX010 (ip), vehicle: saline) of the same molecule?
Its T/C is 100 % of control.
